Reference: ChEMBL document CHEMBL1201862, “PubChem BioAssay data set” (2004)
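Compound exposure: 48 hours, 5 concentrations, 96-well plates. GI50: concentration for 50% inhibition of growth.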 Activity calls are given as the source filed them. Cut-off read from the data, not from the text of the source: active = GI50 up to about 1.1 µM and inactive = higher.

How the values were obtained:
Experiment in all cases: DTP human tumour cell line panel, 48 h
T47D = test system: T47D
TK-10 = test system: TK-10
NCI-H23 = test system: NCI-H23
SK-OV-3 = test system: SK-OV-3
SNB-19 = test system: SNB-19
OVCAR-3 = test system: OVCAR-3
U-251 = test system: U-251
RPMI-8226 = test system: RPMI-8226
MOLT-4 = test system: MOLT-4
OVCAR-4 = test system: OVCAR-4
ACHN = test system: ACHN
KM12 = test system: KM12
SNB-75 = test system: SNB-75
SF-539 = test system: SF-539
786-0 = test system: 786-0
SR = test system: SR
HCC 2998 = test system: HCC 2998
MDA-MB-231 = test system: MDA-MB-231
M14 = test system: M14
SK-MEL-28 = test system: SK-MEL-28

Compound	GI50 (T47D)	GI50 (TK-10)	GI50 (NCI-H23)	GI50 (SK-OV-3)	GI50 (SNB-19)	GI50 (OVCAR-3)	GI50 (U-251)	GI50 (RPMI-8226)	GI50 (MOLT-4)	GI50 (OVCAR-4)	GI50 (ACHN)	GI50 (KM12)	GI50 (SNB-75)	GI50 (SF-539)	GI50 (786-0)	GI50 (SR)	GI50 (HCC 2998)	GI50 (MDA-MB-231)	GI50 (M14)	GI50 (SK-MEL-28)
O=C1c2ccccc2-n2c1nc1cc(Cl)ccc1c2=O	0.807 µM (active)	> 100 µM (inactive)	11.8 µM (inactive)	> 100 µM (inactive)	> 100 µM (inactive)	23 µM (inactive)	51.4 µM (inactive)	5.04 µM (inactive)	11.9 µM (inactive)	27.7 µM (inactive)	> 100 µM (inactive)	39.9 µM (inactive)	85.9 µM (inactive)	> 100 µM (inactive)	89.7 µM (inactive)	6.62 µM (inactive)	> 100 µM (inactive)	> 100 µM (inactive)	15.8 µM (inactive)	
O=[N+]([O-])/C(Cl)=C(/C(Cl)=C(Cl)Cl)N1CCOCC1	2.94 µM (inactive)	3.49 µM (inactive)	2.24 µM (inactive)	13.8 µM (inactive)	17.6 µM (inactive)	2.13 µM (inactive)	10.7 µM (inactive)	2.56 µM (inactive)	2.58 µM (inactive)	5.51 µM (inactive)	6.01 µM (inactive)	3.34 µM (inactive)	4.03 µM (inactive)	3.12 µM (inactive)	2.92 µM (inactive)	2.21 µM (inactive)	3.09 µM (inactive)	3.86 µM (inactive)	2.36 µM (inactive)	11 µM (inactive)
COC(=O)/C(C#N)=C(\Nc1ccccc1)N1CCCCC1	> 100 µM (inactive)	> 100 µM (inactive)	> 100 µM (inactive)	> 100 µM (inactive)	> 100 µM (inactive)	> 100 µM (inactive)	> 100 µM (inactive)	> 100 µM (inactive)	> 100 µM (inactive)	> 100 µM (inactive)	> 100 µM (inactive)		> 100 µM (inactive)	> 100 µM (inactive)	> 100 µM (inactive)	> 100 µM (inactive)	> 100 µM (inactive)	> 100 µM (inactive)	> 100 µM (inactive)	> 100 µM (inactive)
